IC50 data for 27 molecules are collected here from US20240317721A1, “PYRAZOLYL DERIVATIVES AS INHIBITORS OF THE KRAS MUTANT PROTEIN” (NOVARTIS AG, priority 2021, published 2024).

SMILES strings stand for the structures.

In this assay the target is KRasG12C (M1-K169, biotinylated on the N-terminus) (Homo sapiens (Human), UniProt P01116, G12C). The assay is described as follows: Covalent competition assay: scintillation proximity assay (SPA) quantifying covalent modification of KRASG12C. It is filed as binding. The settings on record: competition with radiolabeled covalent probe (Compound B/Compound A), 2 hours incubation, 10 nM KRasG12C. The essentials:
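Scintillation proximity readout after streptavidin bead capture (30 min) of biotinylated KRasG12C(M1-K169):GDP, 10 nM final, which was covalently labelled over 2 h by 25 nM radio-probe plus 475 nM cold probe unless blocked by compound.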
(In general: In a scintillation proximity assay essentially only radioactivity close to the scintillant gives light.)
As usually defined, the IC50 is the concentration needed to halve the response being measured. For `C=CC(=O)N1CC2(CC(n3nc(N4CC[C@@H](CN5CCN(C6COC6)C6COCC65)CC4(C)C)c(-c4c(Cl)c(Cl)cc5[nH]ncc45)c3C)C2)C1` (single isomer, unassigned) [Example 280b, 1-(6-(4-(5,6-dichloro-1H-indazol-4-yl)-3-((R)-2,2-dimethyl-4-(((4aS*,7aR*)-4-(oxetan-3-yl)hexahydrofuro[3,4-b]pyrazin-1(2H)-yl)methyl)piperidin-1-yl)-5-methyl-1H-pyrazol-1-yl)-2-azaspiro[3.3]heptan-2-yl)prop-2-en-1-one], the IC50 turned out to be 7 nM.

For `C=CC(=O)N1CC2(CC(n3nc(N4CCC(N(C)C5COC5)CC45CCC5)c(-c4c(Cl)c(C)cc5[nH]nc(N)c45)c3C)C2)C1` (single isomer, unassigned) [Example 115a, 1-(6-(4-(3-amino-5-chloro-6-methyl-1H-indazol-4-yl)-5-methyl-3-(8-(methyl(oxetan-3-yl)amino)-5-azaspiro[3.5]nonan-5-yl)-1H-pyrazol-1-yl)-2-azaspiro[3.3]heptan-2-yl)prop-2-en-1-one], the IC50 was found to be 7 nM.

With `C=CC(=O)N1CC2(CC(n3nc(N4CC[C@@H](CN5CC6(O)CC5C6)CC4(C)C)c(-c4c(Cl)c(Cl)cc5[nH]ncc45)c3C)C2)C1` (single isomer, unassigned) [Example 293a], the IC50 was 4000 nM.

Consider `C=CC(=O)N1CC2(CC(n3nc(N4CCN(C(C)=O)CC4(C)C)c(-c4c(C)c(C)cc5[nH]ncc45)c3C)C2)C1` (single isomer, unassigned) [Example 1b, 1-(6-(3-(4-Acetyl-2,2-dimethylpiperazin-1-yl)-4-(5,6-dimethyl-1H-indazol-4-yl)-5-methyl-1H-pyrazol-1-yl)-2-azaspiro[3.3]heptan-2-yl)prop-2-en-1-one], for which the IC50 was 10700 nM.

In the case of `C=CC(=O)N1CC2(CC(n3nc(N4CCN(C5COC5)CC45CCC5)c(-c4c(C)c(O)cc(C)c4Cl)c3C)C2)C1` (single isomer, unassigned) [Example 49a, 1-(6-(4-(2-chloro-5-hydroxy-3,6-dimethylphenyl)-5-methyl-3-(8-(oxetan-3-yl)-5,8-diazaspiro[3.5]nonan-5-yl)-1H-pyrazol-1-yl)-2-azaspiro[3.3]heptan-2-yl)prop-2-en-1-one], the IC50 is 1790 nM.

Turning to `C=CC(=O)N1CC2(CC(n3nc(N4CC[C@@H](CN5CC6(CCCN6C6COC6)C5)CC4(C)C)c(-c4c(Cl)c(Cl)cc5[nH]ncc45)c3C)C2)C1` (single isomer, unassigned) [Example 272b], the IC50 came out at 8 nM.

In the case of `C=CC(=O)N1CC2(CC(n3nc(N4CCN(C(=O)N(C)C)CC4(C)C)c(-c4c(Cl)c(C)cc5[nH]ncc45)c3C)C2)C1` (single isomer, unassigned) [Example 129a, 4-(1-(2-acryloyl-2-azaspiro[3.3]heptan-6-yl)-4-(5-chloro-6-methyl-1H-indazol-4-yl)-5-methyl-1H-pyrazol-3-yl)-N,N,3,3-tetramethylpiperazine-1-carboxamide], the IC50 was 32 nM.

For the molecule `C=CC(=O)N1CC2(CC(n3nc(N4CCN(C5COC5)CC45CCC5)c(-c4c(C)c(O)cc(C)c4Cl)c3C)C2)C1` (single isomer, unassigned) [Example 49b, 1-(6-(4-(2-chloro-5-hydroxy-3,6-dimethylphenyl)-5-methyl-3-(8-(oxetan-3-yl)-5,8-diazaspiro[3.5]nonan-5-yl)-1H-pyrazol-1-yl)-2-azaspiro[3.3]heptan-2-yl)prop-2-en-1-one], the IC50 was above 5000 nM.

With `C=CC(=O)N1CC2(CC(n3nc(N4CC[C@@H](CN5CCOCC5)CC4(C)C)c(-c4c(Cl)c(C)cc5[nH]nc(N)c45)c3C)C2)C1` (single isomer, unassigned) [Example 242b], the half-inhibitory concentration (IC50) stood at 1400 nM.

Regarding `C=CC(=O)N1CC2(CC(n3nc(N4CCN(C[C@@H]5COCCO5)C[C@]4(C)COC)c(-c4c(Cl)c(C)cc5[nH]nc(N)c45)c3C)C2)C1` (single isomer, unassigned) [Example 118a], the IC50 amounted to 15 nM.

`C=CC(=O)N1CC2(CC(n3nc(N4CCN(C5COC5)C5COCC54)c(-c4c(Cl)c(C)cc5[nH]ncc45)c3C)C2)C1` (single isomer, unassigned) [Example 136a, 1-(6-(4-(5-chloro-6-methyl-1H-indazol-4-yl)-5-methyl-3-((4aS*,7aS*)-4-(oxetan-3-yl)hexahydrofuro[3,4-b]pyrazin-1(2H)-yl)-1H-pyrazol-1-yl)-2-azaspiro[3.3]heptan-2-yl)prop-2-en-1-one]: the IC50 stood at 846 nM.

Take `C=CC(=O)N1CC2(CC(n3nc(N4CCN(C[C@@H]5COCCO5)C[C@]4(C)CC)c(-c4c(Cl)cnc5[nH]ncc45)c3C)C2)C1` (single isomer, unassigned) [Example 81b]: the IC50 worked out at 585 nM.

With `C=CC(=O)N1CC2(CC(n3nc(N4CCN(CCOC)C[C@@]4(C)C(F)F)c(-c4c(Cl)c(C)cc5[nH]ncc45)c3C)C2)C1` (single isomer, unassigned) [Example 179b], the IC50 was determined as 38 nM.

For the molecule `C=CC(=O)N1CC2(CC(n3nc(N4CCN(C[C@@H]5COCCO5)C[C@]4(C)CC)c(-c4c(Cl)c(C)cc5[nH]ncc45)c3C)C2)C1C` (single isomer, unassigned) [Example 199a], the IC50 was above 5000 nM.

Consider `C=CC(=O)N1CC2(CC(n3nc(N4CC[C@@H](CN5CCOCC5)CC4(C)C)c(-c4c(Cl)c(C)cc5[nH]nc(N)c45)c3C)C2)C1` (single isomer, unassigned) [Example 242a], for which the IC50 turned out to be 13 nM.

Consider `C=CC(=O)N1CC2(CC(n3nc(N4CCN(C[C@@H]5COCCO5)C[C@]4(C)COC)c(-c4c(Cl)c(C)cc5[nH]ncc45)c3C)C2)C1` (single isomer, unassigned) [Example 181b], for which the IC50 amounted to 8 nM.

In the case of `C=CC(=O)N1CC2(CC(n3nc(N4CCC(N(C)C5COC5)CC45CCC5)c(-c4c(Cl)c(C)cc5[nH]nc(N)c45)c3C)C2)C1` (single isomer, unassigned) [Example 115b, 1-(6-(4-(3-amino-5-chloro-6-methyl-1H-indazol-4-yl)-5-methyl-3-(8-(methyl(oxetan-3-yl)amino)-5-azaspiro[3.5]nonan-5-yl)-1H-pyrazol-1-yl)-2-azaspiro[3.3]heptan-2-yl)prop-2-en-1-one], the IC50 is 246 nM.

Regarding `C=CC(=O)N1CC2(CC(n3nc(N4CCC(CN5CC6COCC6C5)CC4(C)C)c(-c4c(Cl)c(Cl)cc5[nH]ncc45)c3C)C2)C1` (single isomer, unassigned) [Example 227a, 1-(6-(4-(5,6-dichloro-1H-indazol-4-yl)-3-(2,2-dimethyl-4-((tetrahydro-1H-furo[3,4-c]pyrrol-5(3H)-yl)methyl)piperidin-1-yl)-5-methyl-1H-pyrazol-1-yl)-2-azaspiro[3.3]heptan-2-yl)prop-2-en-1-one], the IC50 turned out to be 4900 nM.

For the molecule `C=CC(=O)N1CC2(CC(n3nc(N4CCN(C[C@@H]5COCCO5)C[C@]4(C)COC)c(-c4c(Cl)c(Cl)cc5[nH]ncc45)c3C)C2)C1` (single isomer, unassigned) [Example 182a], the IC50 was 1400 nM.

For the molecule `C=CC(=O)N1CC2(CCC(n3nc(N4CCN(C(C)=O)CC4)c(-c4c(Cl)ccc5[nH]ncc45)c3C)C2)C1` (single isomer, unassigned) [Example 53b, 1-(6-(3-(4-acetylpiperazin-1-yl)-4-(5-chloro-1H-indazol-4-yl)-5-methyl-1H-pyrazol-1-yl)-2-azaspiro[3.4]octan-2-yl)prop-2-en-1-one], the IC50 was above 50000 nM.

As for `C=CC(=O)N1CC2(CC(n3nc(N4CCN(C5COC5)CC4(C)C)c(-c4c(Cl)c(Cl)cc5[nH]ncc45)c3C)C2)C1` (single isomer, unassigned) [Example 73b, 1-(6-(4-(5,6-dichloro-1H-indazol-4-yl)-3-(2,2-dimethyl-4-(oxetan-3-yl)piperazin-1-yl)-5-methyl-1H-pyrazol-1-yl)-2-azaspiro[3.3]heptan-2-yl)prop-2-en-1-one], the IC50 is 15 nM.

Regarding `C=CC(=O)N1CC2(CC(n3nc(N4CCN(C5CCOCC5)C[C@]4(C)COC)c(-c4c(Cl)c(Cl)cc5[nH]ncc45)c3C)C2)C1` (single isomer, unassigned) [Example 150a], the IC50 was 252 nM.

Turning to `C=CC(=O)N1CC2(CC(n3nc(N4CCN(C5COC5)CC45CCC5)c(-c4c(Cl)c(C)cc5[nH]nc(N)c45)c3C)C2)C1` (single isomer, unassigned) [Example 114b, 1-(6-(4-(3-amino-5-chloro-6-methyl-1H-indazol-4-yl)-5-methyl-3-(8-(oxetan-3-yl)-5,8-diazaspiro[3.5]nonan-5-yl)-1H-pyrazol-1-yl)-2-azaspiro[3.3]heptan-2-yl)prop-2-en-1-one], the IC50 is 337 nM.

For the molecule `C=CC(=O)N1CC2(CC(n3nc(N4CC[C@@H](CN5CC(O)C(OC)C5)CC4(C)C)c(-c4c(Cl)c(Cl)cc5[nH]ncc45)c3C)C2)C1` (single isomer, unassigned) [Example 274b, 1-(6-(4-(5,6-dichloro-1H-indazol-4-yl)-3-((R)-4-(((3S*,4S*)-3-hydroxy-4-methoxypyrrolidin-1-yl)methyl)-2,2-dimethylpiperidin-1-yl)-5-methyl-1H-pyrazol-1-yl)-2-azaspiro[3.3]heptan-2-yl)prop-2-en-1-one], the IC50 is 8 nM.

For `C=CC(=O)N1CC2(CC(n3nc(N4CCN(C5CCOCC5)C[C@]4(C)C(F)F)c(-c4c(Cl)c(C)cc5[nH]ncc45)c3C)C2)C1` (single isomer, unassigned) [Example 151a], the IC50 was determined as 46 nM.

As for `C=CC(=O)N1CC2(CC(n3nc(N4CCN(C[C@@H]5COCCO5)CC4(C)C)c(-c4c(Cl)c(Cl)cc5[nH]ncc45)c3C)C2)C1` (single isomer, unassigned) [Example 172a], the IC50 was determined as 3900 nM.

As to `C=CC(=O)N1CC2(CC(n3nc(N4CCC(=O)CC45CCC5)c(-c4c(Cl)c(C)cc5[nH]ncc45)c3C)C2)C1` [Example 46, 5-(1-(2-acryloyl-2-azaspiro[3.3]heptan-6-yl)-4-(5-chloro-6-methyl-1H-indazol-4-yl)-5-methyl-1H-pyrazol-3-yl)-5-azaspiro[3.5]nonan-8-one], the half-inhibitory concentration (IC50) was 138 nM.
